In ChEMBL document CHEMBL2021793, “Synthesis, biological evaluation and structure-activity relationships of glycyrrhetinic acid derivatives as novel anti-hepatitis B virus agents” (Bioorg Med Chem Lett, 2012):

Tests used:
Hepatitis B virus [1] = assay: Antiviral activity against Hepatitis B virus infected in human HepG2(2.2.15) cells assessed as reduction in viral DNA replication; assay type: functional, organism-based
[2] = Cytotoxicity against human HepG2(2.2.15) cells; assay type: cell-based
Hepatitis B virus [3] = assay: Antiviral activity against Hepatitis B virus infected in human HepG2(2.2.15) cells assessed as reduction in hepatitis B e-antigen release; assay type: functional, organism-based
Hepatitis B virus [4] = assay: Antiviral activity against Hepatitis B virus infected in human HepG2(2.2.15) cells assessed as reduction in hepatitis B surface antigen release; assay type: functional, organism-based
[5] = Selectivity index, ratio of CC50 for human HepG2(2.2.15) cells to IC50 for HBV by viral DNA replication detection assay; assay type: functional

Row | SMILES | IC50 (Hepatitis B virus [1]) | CC50 [2] | IC50 (Hepatitis B virus [3]) | IC50 (Hepatitis B virus [4]) | Ratio CC50/IC50 [5]
1 | COC(=O)[C@@]1(C)CC[C@]2(C)CC[C@]3(C)C(=CC(=O)[C@@H]4[C@@]5(C)CC[C@H](O)C(C)(C)[C@@H]5CC[C@]43C)[C@@H]2C1 | > 444 µM | > 1740 µM | > 1740 µM | > 1740 µM | –
2 | CC1(C)[C@@H](O)CC[C@]2(C)[C@H]3C(=O)C=C4[C@@H]5C[C@@](C)(C(=O)OCc6cc(F)cc(F)c6)CC[C@]5(C)CC[C@@]4(C)[C@]3(C)CC[C@@H]12 | > 307 µM | > 1230 µM | > 1230 µM | > 1230 µM | –
3 | CC1(C)[C@@H](O)CC[C@]2(C)[C@H]3C(=O)C=C4[C@@H]5C[C@@](C)(C(=O)OCc6cc(C(F)(F)F)cc(C(F)(F)F)c6)CC[C@]5(C)CC[C@@]4(C)[C@]3(C)CC[C@@H]12 | > 426 µM | > 1700 µM | > 1700 µM | > 1700 µM | –
4 | CC1(C)[C@@H](O)CC[C@]2(C)[C@H]3CC=C4[C@@H]5C[C@@](C)(C(=O)OCc6ccc(C(F)(F)F)cc6)CC[C@]5(C)CC[C@@]4(C)[C@]3(C)CC[C@@H]12 | > 375 µM | > 1500 µM | > 1500 µM | > 1500 µM | –
5 | CC1(C)[C@@H](O)CC[C@]2(C)[C@H]3CC=C4[C@@H]5C[C@@](C)(C(=O)OCc6ccc(Br)cc6F)CC[C@]5(C)CC[C@@]4(C)[C@]3(C)CC[C@@H]12 | > 382 µM | 1150 µM | > 1530 µM | > 1530 µM | –
6 | CCOC(=O)CCCOC(=O)[C@@]1(C)CC[C@]2(C)CC[C@]3(C)C(=CC[C@@H]4[C@@]5(C)CC[C@H](O)C(C)(C)[C@@H]5CC[C@]43C)[C@@H]2C1 | > 292 µM | 530 µM | > 1170 µM | 638 µM | –
7 | COc1cc(/C=C/C(=O)O[C@H]2CC[C@]3(C)[C@H]4CC=C5[C@@H]6C[C@@](C)(C(=O)OCc7ccc(C(F)(F)F)cc7)CC[C@]6(C)CC[C@@]5(C)[C@]4(C)CC[C@H]3C2(C)C)cc(OC)c1OC | > 247 µM | > 987 µM | > 987 µM | > 987 µM | –
8 | COc1cccc(/C=C/C(=O)O[C@H]2CC[C@]3(C)[C@H]4CC=C5[C@@H]6C[C@@](C)(C(=O)OCc7ccc(C(F)(F)F)cc7)CC[C@]6(C)CC[C@@]5(C)[C@]4(C)CC[C@H]3C2(C)C)c1 | > 225 µM | > 899 µM | > 899 µM | > 899 µM | –
9 | CC1(C)[C@@H](OC(=O)c2cc(=O)c3ccccc3o2)CC[C@]2(C)[C@H]3CC=C4[C@@H]5C[C@@](C)(C(=O)OCc6ccc(C(F)(F)F)cc6)CC[C@]5(C)CC[C@@]4(C)[C@]3(C)CC[C@@H]12 | > 293 µM | > 1170 µM | > 1170 µM | > 1170 µM | –
10 | COc1cc(/C=C/C(=O)O[C@H]2CC[C@]3(C)[C@H]4CC=C5[C@@H]6C[C@@](C)(C(=O)OCc7ccc(Br)cc7F)CC[C@]6(C)CC[C@@]5(C)[C@]4(C)CC[C@H]3C2(C)C)cc(OC)c1OC | > 259 µM | 935 µM | > 1030 µM | > 1030 µM | –
11 | COc1cccc(/C=C/C(=O)O[C@H]2CC[C@]3(C)[C@H]4CC=C5[C@@H]6C[C@@](C)(C(=O)OCc7ccc(Br)cc7F)CC[C@]6(C)CC[C@@]5(C)[C@]4(C)CC[C@H]3C2(C)C)c1 | > 250 µM | > 1000 µM | > 1000 µM | > 1000 µM | –
12 | CC1(C)[C@@H](OC(=O)c2cc(=O)c3ccccc3o2)CC[C@]2(C)[C@H]3CC=C4[C@@H]5C[C@@](C)(C(=O)OCc6ccc(Br)cc6F)CC[C@]5(C)CC[C@@]4(C)[C@]3(C)CC[C@@H]12 | > 271 µM | > 1080 µM | > 1080 µM | > 1080 µM | –
13 | CCOC(=O)CCCOC(=O)[C@@]1(C)CC[C@]2(C)CC[C@]3(C)C(=CC[C@@H]4[C@@]5(C)CC[C@H](OC(=O)/C=C/c6cc(OC)c(OC)c(OC)c6)C(C)(C)[C@@H]5CC[C@]43C)[C@@H]2C1 | > 307 µM | > 1230 µM | > 1230 µM | > 1230 µM | –
14 | CCOC(=O)CCCOC(=O)[C@@]1(C)CC[C@]2(C)CC[C@]3(C)C(=CC[C@@H]4[C@@]5(C)CC[C@H](OC(=O)c6cc(=O)c7ccccc7o6)C(C)(C)[C@@H]5CC[C@]43C)[C@@H]2C1 | > 294 µM | > 1180 µM | > 1180 µM | > 1180 µM | –
15 | CC1(C)[C@@H](OC(=O)c2cc(=O)c3ccccc3o2)CC[C@]2(C)[C@H]3CC=C4[C@@H]5C[C@@](C)(C(=O)OCC(N)=O)CC[C@]5(C)CC[C@@]4(C)[C@]3(C)CC[C@@H]12 | > 236 µM | > 944 µM | > 944 µM | > 944 µM | –
16 | C=CCOC(=O)[C@@]1(C)CC[C@]2(C)CC[C@]3(C)C(=CC(=O)[C@@H]4[C@@]5(C)CC[C@H](O)C(C)(C)[C@@H]5CC[C@]43C)[C@@H]2C1 | > 578 µM | > 2310 µM | > 2310 µM | > 2310 µM | –
17 | CCCCOC(=O)[C@@]1(C)CC[C@]2(C)CC[C@]3(C)C(=CC(=O)[C@@H]4[C@@]5(C)CC[C@H](O)C(C)(C)[C@@H]5CC[C@]43C)[C@@H]2C1 | > 247 µM | > 986 µM | > 986 µM | > 986 µM | –
18 | C=CCCOC(=O)[C@@]1(C)CC[C@]2(C)CC[C@]3(C)C(=CC(=O)[C@@H]4[C@@]5(C)CC[C@H](O)C(C)(C)[C@@H]5CC[C@]43C)[C@@H]2C1 | 332 µM | > 1750 µM | > 1750 µM | > 1750 µM | >5.3
19 | CCCCCCOC(=O)[C@@]1(C)CC[C@]2(C)CC[C@]3(C)C(=CC(=O)[C@@H]4[C@@]5(C)CC[C@H](O)C(C)(C)[C@@H]5CC[C@]43C)[C@@H]2C1 | 66.2 µM | 175 µM | > 1700 µM | > 1700 µM | 2.6
20 | CCCCCCCCOC(=O)[C@@]1(C)CC[C@]2(C)CC[C@]3(C)C(=CC(=O)[C@@H]4[C@@]5(C)CC[C@H](O)C(C)(C)[C@@H]5CC[C@]43C)[C@@H]2C1 | > 362 µM | > 1450 µM | > 1450 µM | > 1450 µM | –
21 | CCCCCCCCCCOC(=O)[C@@]1(C)CC[C@]2(C)CC[C@]3(C)C(=CC(=O)[C@@H]4[C@@]5(C)CC[C@H](O)C(C)(C)[C@@H]5CC[C@]43C)[C@@H]2C1 | > 257 µM | > 1030 µM | > 1030 µM | > 1030 µM | –
22 | CC1(C)[C@@H](O)CC[C@]2(C)[C@H]3C(=O)C=C4[C@@H]5C[C@@](C)(C(=O)OCC6CC6)CC[C@]5(C)CC[C@@]4(C)[C@]3(C)CC[C@@H]12 | 67 µM | 696 µM | > 1100 µM | 678 µM | 10.4
23 | CC1(C)[C@@H](O)CC[C@]2(C)[C@H]3C(=O)C=C4[C@@H]5C[C@@](C)(C(=O)OC6CCC6)CC[C@]5(C)CC[C@@]4(C)[C@]3(C)CC[C@@H]12 | 89.5 µM | 742 µM | > 1810 µM | 810 µM | 8.3
24 | CC1(C)[C@@H](O)CC[C@]2(C)[C@H]3C(=O)C=C4[C@@H]5C[C@@](C)(C(=O)OCC6CCOCC6)CC[C@]5(C)CC[C@@]4(C)[C@]3(C)CC[C@@H]12 | > 479 µM | > 1910 µM | > 1910 µM | > 1910 µM | –
25 | CC1(C)[C@@H](O)CC[C@]2(C)[C@H]3C(=O)C=C4[C@@H]5C[C@@](C)(C(=O)OCCCBr)CC[C@]5(C)CC[C@@]4(C)[C@]3(C)CC[C@@H]12 | 28.6 µM | 160 µM | > 1390 µM | > 1390 µM | 5.6
26 | CCOCCOC(=O)[C@@]1(C)CC[C@]2(C)CC[C@]3(C)C(=CC(=O)[C@@H]4[C@@]5(C)CC[C@H](O)C(C)(C)[C@@H]5CC[C@]43C)[C@@H]2C1 | 198 µM | 541 µM | > 1720 µM | 835 µM | 2.7
27 | CC1(C)[C@@H](O)CC[C@]2(C)[C@H]3C(=O)C=C4[C@@H]5C[C@@](C)(C(=O)OCCO)CC[C@]5(C)CC[C@@]4(C)[C@]3(C)CC[C@@H]12 | 298 µM | 380 µM | > 1920 µM | 1010 µM | 1.3
